Test results as given in US5466675A, “Immunological activity of rhamnolipids” (priority 1992, dated 1995).

Tests used:
[1] = system: phospholipase A2; conditions: Japanese patent No. 63 253 025; cited from earlier work
[2] = system: oxazolone-induced delayed type hypersensitivity; experiment: immunostimulation (cellular): oxazolone-induced delayed type hypersensitivity; assay type: in vivo, mouse; conditions: IP 100 × 5 mg/kg
Description: The test substance was administered i.p to groups of 5 mice, 1 hour before application (sensitization) of oxazolone (0.1 ml of 5% solution) to the pre-shaven abdominal surface. Seven days later, 25 μl of a 2% solution of oxazolone was applied (challenge) to the right ear, with vehicle being applied to the left ear. After 24 hours, each mouse was sacrificed and ear thickness measured with a Dyer Model micrometer gauge. Greater than 30 percent enhancement is considered immunostimulant activity.

[3] = system: Candida albicans; experiment: immunorestoration: immunosuppression with cyclophosphamide and infection with Candida albicans; assay type: in vivo, mouse (ICR, female); conditions: for Survivor No.: n = 10
Description: […] One day after the last immunosuppressant dose, the mice were challenged with a suspension of C. albicans sufficient to result in 90 to 100 percent mortality within 10 days in the vehicle treated control group. A greater than 30 percent survival for any drug treated group is considered significant, and possibly a result of immunorestorant activity.

[4] = system: sheep red blood cell (SRBC) hemagglutination; experiment: immunostimulation (humoral): sheep red blood cell (SRBC) hemagglutination; assay type: in vivo, mouse (ICR, female); conditions: IP 30 × 3 mg/kg
Description: (§1) Groups of 6 mice were sensitized by the IV injection of 0.2 ml of a 2% SRBC suspension. On the 9th day following sensitization, blood samples were withdrawn from the orbital sinus and equal parts of complement inactivated serum from the group of 6 mice were pooled to yield a single 0.25 ml sample. Serial 2-fold dilutions were then carried out 10 times in the presence of added complement. […] Serum titers of less than 16 or greater than 128 are considered significant and indicate possible immunosuppressant and immunostimulant activity, respectively.
(§2) For immunostimulant activity, test substance or vehicle was administered i.p. to groups of mice for 3 consecutive days, and sensitized to SRBCs 2 hours after the third (last) injection. For immunosuppressant activity, test substance or vehicle was administered i.p. to groups of mice for 3 consecutive days beginning 2 hours after sensitization to SRBCs.

[5] = system: Candida albicans; experiment: immunomodulation: infection with Candida albicans; assay type: in vivo, mouse (ICR, female); conditions: IP 30 mg/kg
Description: The test compound or vehicle was administered i.p. to groups of 10 mice 1 hour before IV, challenge with suspension of C. albicans sufficient to result in 90 to 100% mortality within 10 days in the vehicle treated control group. A greater than 30 percent survival for any treated group is considered very significant, and possibly a result of immunomodulation, while an increase of 20% is considered a moderate immunomodulation activity.

[6] = system: oxazolone-induced delayed type hypersensitivity; experiment: immunosuppression (cellular): oxazolone-induced delayed type hypersensitivity; assay type: in vivo, mouse (ICR, female); conditions: IP 30 × 5 mg/kg
Description: The shaved abdominal surface of groups of 5 mice were sensitized by application of 0.1 ml of 5% oxazolone. The test substance was administered i.p after 1 hour and then daily for 5 consecutive doses. After an additional 4 days, the animals were challenged by application of 25 ul of 5% oxazolone to the right ear. Twenty-four hours later, ear thickness was measured with a Dyer Model micrometer gauge.
A 50 percent or greater decrease in drug-treated versus control animals is considered significant immunosuppressant activity.

[7] = system: sheep red blood cell (SRBC) hemagglutination; experiment: immunosuppression (humoral): sheep red blood cell (SRBC) hemagglutination; assay type: in vivo, mouse (ICR, female); conditions: IP 30 × 3 mg/kg
Description: as §1, §2

[8] = IP 100 × 3 mg/kg + cyclophosphamide
[9] = cyclophosphamide alone, PO 30 × 3 mg/kg

rhamnopyranosyldecanoic acid
phospholipase A2 inhibition [1]: phospholipase A2 inhibition

CC(C)(N1CC1C#N)N1CC1C(N)=O (stereo not shown) [Azimexone, reference compound]
Swelling Inc. % [2]: 31%
Swelling (R -L) ([2]; X ± SEM): 22.8 +/- 0.9 × 0.01 mm
ear thickness, Left Ear (No Oxa.) ([2]; X ± SEM): 21.4 +/- 0.5 × 0.01 mm
ear thickness, Right Ear (24 hrs Oxa.) ([2]; X ± SEM): 44.2 +/- 0.7 × 0.01 mm
Death, days post-inoculum 0-1 [3, 8]: 2 #/10 Mice
Death, days post-inoculum 2-3 [3, 8]: 1 #/10 Mice
Death, days post-inoculum 4-6 [3, 8]: 1 #/10 Mice
Death, days post-inoculum 7-9 [3, 8]: 1 #/10 Mice
Response Inc. % [3, 8]: 30%
Survivor No. [3, 8]: 5

c1ccc([C@H]2CN3CCSC3=N2)cc1 [Levamisole, reference compound]
SERUM TITER (Reciprocal Serum Dilution) [4]: 128
Death, days post-inoculum 0-1 [5]: 3 #/10 Mice
Death, days post-inoculum 2-3 [5]: 3 #/10 Mice
Death, days post-inoculum 4-6 [5]: 0 #/10 Mice
Death, days post-inoculum 7-9 [5]: 0 #/10 Mice
Response Inc. % [5]: 20%
Survivor No. ([5]; n = 10): 4

O=P1(N(CCCl)CCCl)NCCCO1 (stereo not shown) [Cyclophosphamide, reference compound]
Swelling Inh. % [6]: 59%
Swelling (R -L) ([6]; X +/- SEM): 10.6 +/- 1.8 × 0.01 mm
ear thickness, Left Ear (No Oxa.) ([6]; X +/- SEM): 19.0 +/- 0.4 × 0.01 mm
ear thickness, Right Ear (24 hrs Oxa.) ([6]; X +/- SEM): 29.6 +/- 2.2 × 0.01 mm
SERUM TITER (Reciprocal Serum Dilution) [7]: 4
Death, days post-inoculum 0-1 [3, 9]: 3 #/10 Mice
Death, days post-inoculum 2-3 [3, 9]: 2 #/10 Mice
Death, days post-inoculum 4-6 [3, 9]: 2 #/10 Mice
Death, days post-inoculum 7-9 [3, 9]: 1 #/10 Mice
Survivor No. [3, 9]: 2
